Source: patent publication US4985445A, “Cancer cell metastasis inhibitors and novel compounds” (Meiji Seika Kaisha, Ltd., priority 1988, dated 1991)
Where two headings read alike, the source gives them in different places.

Key:
[1] = test system: B16 subline of high pulmonary metastatic potential; conditions: Table 2, B16 subline, 3 days;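 further: + means growth and ± means marked inhibition and - means cell death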
Experimental: (§1) The B16 subline of high pulmonary metastatic potential and murine tumor cell line L 929 were cultured in DME medium supplemented with 10% bovine fetal serum at 37° C. in the presence of 5% CO2. Then, cells were detached from the Petri dish with trypsin-EDTA solution. The B16 subline and L 929 were suspended in the medium described above in 1×10^4 cells/ml and 1×10^3 cells/ml, respectively. Each suspension, 150 μl, was added to 50 μl of N-(3-phenylpropyl)-1-deoxynojirimycin solution or Adriamycin (control) solution. Incubation was performed for 3 days for the B16 subline and for 4 days for L 929 strain.
as §1, with “of N-(4-phenoxy-trans-2-butenyl)-1-deoxynojirimycin” for “of N-(3-phenylpropyl)-1-deoxynojirimycin”, “days in” for “days for”, “L 929.” for “L 929 strain.”
as §1, with “of D-glucaro-δ-lactam calcium salt” for “of N-(3-phenylpropyl)-1-deoxynojirimycin”, “(control) solutions.” for “(control) solution.”, “days in” for “days for”, “L 929.” for “L 929 strain.”
The B16 subline of high pulmonary metastatic potential and murine tumor cell line L 929 were cultured in DME medium supplemented with 10% bovine fetal serum at 37° C. in the presence of 5% CO2. Then, cells were detached from the Petri dish with trypsin-EDTA solution. The B16 subline and L 929 were suspended in the medium described above in 1×10^4 cells/ml and 1×10^3 cells/ml, respectively. Each suspension, 150 μl, was added to 50 μl of 2,6-di-O-(1-(p-chlorobenzoyl)-5-methoxy-2-methylindole-3-acetyl)-D-gluco-δ-lactam solution or and Adriamycin (control) solutions. Incubation was performed for 3 days in the B16 subline and for 4 days in L 929.
The B16 subline of high pulmanary metastatic potential and murine tumor cell line L 929 were cultured in DME medium supplemented with 10% bovine fetal serum at 37° C. in the presence of 5% CO2. Then, cells were detached from the Petri dish with trypsin-EDTA solution. The B16 subline and L 929 were suspended in the medium described above in 1×10^4 cells/ml and 1×10^3 cells/ml, respectively. Each suspension, 150 μl, was added to 50 μl of 6-O-triphenylmethyl-D-gluco-δ-lactam solution or Adriamycin (control) solutions. Incubation was performed for 3 days in the B16 sibline and for 4 days in L 929.
The B16 subline of high pulmonary metastatic potential was inoculated into DME medium supplemented with 10% bovine fetal serum and 30 μg/ml of 1-deoxynojirimycin was added thereto followed by incubation at 37° C. for 3 days in the presence of 5% CO2. […] Next, the cells were detached from the Petri dish with trypsin-EDTA solution. The cells were suspended in PBS- in 1×10^6 cells/ml as viable cells. This suspension, 0.1 ml, was intravenously injected in the tail vein of the mouse BDF1 (8 week age, male; 1 group, 3 mice). After feeding for 14 days, the mouse was sacrificed to excise the lungs. The number of colonies of the B16 subline on the surface of and in the lungs was counted.

[2] = Acute toxicity (LD50) by mice; conditions: mouse, in vivo, ip

With OC[C@@H]1[C@@H](O)[C@H](O)[C@@H](O)CN1CCCc1ccccc1 [N-(3-Phenylpropyl)-1-deoxynojirimycin, N-(3-phenylpropyl)-1-deoxynojirimycin] the Growth ([1]; 30 μg/ml) was “+”, the Growth ([1]; 100 μg/ml) was “+” and the Growth ([1]; 300 μg/ml) was “±”. For the same compound, the LD50 [2] was greater than 500 mg/kg.
